# In PMC5124248, “Antitumor activity of TY-011 against gastric cancer by inhibiting Aurora A, Aurora B and VEGFR2 kinases” (Journal of Experimental & Clinical Cancer Research : CR, 2016):
# Test system: human MGC-803 xenograft
# Assay: Antitumor activity in vivo, MGC-803 xenograft in nude mice
# Set-up: species or system BALB/c nu/nu mice
# Conditions: 50 mg/kg intraperitoneally twice a week
# Experimental: The animals were housed in specific pathogen-free (SPF) conditions at Key Laboratory of Brain Functional Genomics, Ministry of Education, and were acclimatized for a week prior to use. […] When the tumors reached a mean group size of 100 ~ 150 mm^3, the mice were randomized into control and treatment groups to receive treatment accordingly. […] The tumor growth was recorded with the measurement of length (L) and width (W) by caliper every other day, and calculated as tumor volume (V) = L × W^2/2. Meanwhile, the body weights of mice were recorded. The tumor volume at day n was expressed as relative tumor volume (RTV) according to the following formula: RTV% = (TVn/TV0) ×100%, where TVn is the tumor volume at day n and TV0 is the tumor volume at day 0. The therapeutic effect of treatment was calculated with formula T/C (%) = mean RTV of the treated group/mean RTV of the control group × 100%. […] The tumor regression of individual mouse was defined as the tumor volume at the end was less than the tumor volume when treatment was initiated.
structure (smiles),measurement,setting,value
"CCc1c2c(nc3ccc(OC(=O)N4CCC(N5CCCCC5)CC4)cc13)-c1cc3c(c(=O)n1C2)COC(=O)[C@]3(O)CC [Irinotecan, reference compound]",T/C (%),,8.04%
same,Inhibition rate (%),by tumor weight,96.2%
same,Body weight (g) End,mean ± SEM,21.4 ± 0.2 g
same,Tumor weight,"mean ± SEM, control 0.79 g",0.03 ± 0.01 g
